Reference: ChEMBL document CHEMBL1133923, “Evolution of anti-HIV drug candidates. Part 3: Diarylpyrimidine (DAPY) analogues” (Bioorg Med Chem Lett, 2001)

Experiments:
Assay in all cases: microbe, parasite or virus in culture
[1] = system: Human immunodeficiency virus 1; conditions: Human immunodeficiency virus 1, MT4
Description: Inhibitory activity against 103N strain of HIV-I in MT-4 cells

[2] = system: Human immunodeficiency virus 1; conditions: Human immunodeficiency virus 1, MT4; remark: listed apart in the source
Description: Inhibitory activity against 100I strain and 103N strain of HIV-I in MT-4 cells

[3] = system: Human immunodeficiency virus 1; format: functional, organism-based, MT4
Description: Inhibitory activity against 103N strain and 181C strain of HIV-I in MT-4 cells

[4] = system: Human immunodeficiency virus 1; conditions: Human immunodeficiency virus 1, MT4; remark: listed apart in the source
Description: Inhibitory activity against 181C strain of HIV-I in MT-4 cells

[5] = system: Human immunodeficiency virus 1; conditions: Human immunodeficiency virus 1, MT4; remark: listed apart in the source
Description: Inhibitory activity against 100I strain of HIV-I in MT-4 cells

[6] = system: Human immunodeficiency virus 1; conditions: Human immunodeficiency virus 1, MT4; remark: listed apart in the source
Description: Inhibitory activity against LAI strain of HIV-I in MT-4 cells

[7] = system: Human immunodeficiency virus 1; conditions: Human immunodeficiency virus 1, MT4; remark: listed apart in the source
Description: Inhibitory activity against 188L strain of HIV-I in MT-4 cells

[8] = Human immunodeficiency virus 1, MT4

Row | Structure (SMILES) | IC50 [1] | IC50 [2] | IC50 ([3]; mt4) | IC50 [4] | IC50 [5] | IC50 [6] | IC50 [7] | IC50 [3, 8]
1 | Cc1cc(C#N)cc(C)c1Oc1ccnc(Nc2ccc(C#N)cc2)n1 | 2.7 nM | 798 nM | 94 nM | 37 nM | 73 nM | 1.1 nM | 19 nM | 
2 | N#Cc1ccc(Nc2nc(N)cc(Cc3c(Cl)cccc3Cl)n2)cc1 | 12 nM |  |  | 175 nM | 299 nM | 1 nM | 71 nM | 
3 | Cc1cc(C)c(Nc2nc(Nc3ccc(C#N)cc3)ncc2C#N)c(C)c1 | 3.4 nM |  |  | 40 nM | 63 nM | 1 nM | 77 nM | 
4 | Cc1cc(C)c(Oc2ccnc(Nc3ccc(C#N)cc3)n2)c(C)c1 | 3 nM | 8200 nM |  | 38 nM | 22 nM | 2.9 nM | 55 nM | 1100 nM
5 | Cc1cc(C)c(Nc2nc(Nc3ccc(C#N)cc3)ncc2Cl)c(C)c1 | 6 nM | 319 nM |  | 32 nM | 17 nM | 2.7 nM | 34 nM | 138 nM
6 | Cc1cc(C#N)cc(C)c1Oc1nc(Nc2ccc(C#N)cc2)nc(N)c1Br [ETRAVIRINE] | 1.2 nM | 19 nM |  | 7 nM | 3.3 nM | 1.4 nM | 4.6 nM | 4.3 nM
7 | Cc1cc(C)c(Nc2nc(Nc3ccc(C#N)cc3)ncc2C)c(C)c1 | 2.6 nM | > 100000 nM |  | 12 nM | 12 nM | 1.7 nM | 18 nM | 53 nM
8 | Cc1cc(Cl)cc(C)c1Nc1ccnc(Nc2ccc(C#N)cc2)n1 | 13 nM | > 10000 nM |  | 19 nM | 327 nM | 2.1 nM | 115 nM | 401 nM
9 | Cc1cccc(C)c1Nc1ccnc(Nc2ccc(C#N)cc2)n1 | 28 nM | > 10000 nM |  | 61 nM | 212 nM | 0.7 nM | 260 nM | 
10 | Cc1cc(C)c(Nc2nc(Nc3ccc(C#N)cc3)ncc2-c2ccccc2)c(C)c1 |  |  |  |  |  | 24 nM |  | 
11 | N#Cc1ccc(Nc2nc(N)nc(Cc3c(Cl)cccc3Cl)n2)cc1 |  |  |  |  |  | 6 nM |  | 
12 | N#Cc1ccc(Nc2nccc(Nc3c(Cl)cc(Cl)cc3Cl)n2)cc1 | 3 nM | > 10000 nM |  | 10 nM | 14 nM | 0.7 nM | 99 nM | 
13 | Cc1cc(C#N)cc(C)c1Nc1nc(Nc2ccc(C#N)cc2)ncc1C#N | 2.6 nM | 312 nM |  | 76 nM | 91 nM | 0.5 nM | 8.6 nM | 181 nM
14 | Cc1cc(C)c(Nc2nc(Nc3ccc(C#N)cc3)ncc2Br)c(C)c1 | 7.3 nM | 348 nM |  | 36 nM | 11 nM | 5.5 nM | 27 nM | 283 nM
15 | CC(=O)Nc1cnc(Nc2ccc(C#N)cc2)nc1Oc1c(C)cc(C#N)cc1C | 3.3 nM | 205 nM |  |  |  |  |  | 30 nM
16 | Cc1cc(C#N)cc(C)c1Nc1nc(Nc2ccc(C#N)cc2)ncc1Br | 0.4 nM | 37 nM | 32 nM | 9.6 nM | 7 nM | 0.4 nM | 3.3 nM | 
17 | Cc1cc(C)c(Sc2ccnc(Nc3ccc(C#N)cc3)n2)c(C)c1 | 12 nM | 4790 nM |  | 25 nM | 54 nM | 3.6 nM | 20 nM | 
18 | C=Cc1cnc(Nc2ccc(C#N)cc2)nc1Nc1c(C)cc(C)cc1C | 5.8 nM | > 100000 nM |  | 36 nM | 35 nM | 2.5 nM | 29 nM | 106 nM
19 | Cc1cc(C#N)cc(C)c1Oc1nc(Nc2ccc(C#N)cc2)ncc1[N+](=O)[O-] | 10 nM | > 10000 nM |  | 304 nM | 121 nM | 18 nM | 782 nM | 194 nM

Row | Structure (SMILES) | IC50 [1] | IC50 [2] | IC50 ([3]; mt4) | IC50 [4] | IC50 [5] | IC50 [6] | IC50 [7] | IC50 [3, 8]
20 | Cc1cc(C#N)cc(C)c1Oc1nc(Nc2ccc(C#N)cc2)ncc1Cl | 2.6 nM | 138 nM |  | 34 nM | 7.5 nM | 1.4 nM | 4.8 nM | 38 nM
21 | Cc1cc(C#N)cc(C)c1Nc1nc(Nc2ccc(C#N)cc2)ncc1Cl | 0.9 nM | 144 nM |  | 14 nM | 5.2 nM | 1.2 nM | 4.7 nM | 69 nM
22 | Cc1cc(Br)cc(C)c1Nc1ccnc(Nc2ccc(C#N)cc2)n1 | 12 nM | > 100000 nM |  | 17 nM | 76 nM | 2.3 nM | 69 nM | 150 nM
23 | Cc1cc(Br)cc(C)c1Sc1ccnc(Nc2ccc(C#N)cc2)n1 | 39 nM | 3890 nM |  | 68 nM | 174 nM | 5.7 nM | 44 nM | 354 nM
24 | Cc1cnc(Nc2ccc(C#N)cc2)nc1Nc1c(C)cc(C#N)cc1C | 1.7 nM | > 10000 nM |  | 12 nM | 16 nM | 0.8 nM | 16 nM | 162 nM
25 | Cc1cc(Br)cc(C)c1Oc1ccnc(Nc2ccc(C#N)cc2)n1 | 4.7 nM | 2370 nM |  | 59 nM | 113 nM | 2.9 nM | 79 nM | 217 nM
26 | Cc1cc(Cl)cc(Cl)c1Nc1ccnc(Nc2ccc(C#N)cc2)n1 | 13 nM | > 10000 nM |  | 18 nM | 60 nM | 1 nM | 86 nM | 
27 | Cc1cc(C)c(Nc2ccnc(Nc3ccc(C#N)cc3)n2)c(C)c1 [DAPIVIRINE] | 4.3 nM | > 10000 nM |  | 7.5 nM | 18 nM | 1 nM | 48 nM | 44 nM
28 | N#Cc1ccc(Nc2cc(Cc3c(Cl)cccc3Cl)nc(N)n2)cc1 | 33300 nM |  |  | > 100000 nM | 96600 nM | 10 nM | > 100000 nM | 
29 | C#Cc1cnc(Nc2ccc(C#N)cc2)nc1Nc1c(C)cc(C)cc1C | 6.2 nM | 71 nM |  |  |  |  |  | 42 nM
30 | CC(C)Nc1cccnc1N1CCN(C(=O)c2cc3cc(NS(C)(=O)=O)ccc3[nH]2)CC1 [DELAVIRDINE] | 2510 nM |  |  | 2000 nM | 2510 nM | 63 nM | 1260 nM | 20000 nM
31 | Cc1cc(C#N)cc(C)c1Oc1nc(Nc2ccc(C#N)cc2)ncc1Br | 1.4 nM | 49 nM |  | 22 nM | 6.6 nM | 1.4 nM | 5.9 nM | 25 nM
32 | Cc1cc(Br)c(Nc2ccnc(Nc3ccc(C#N)cc3)n2)c(Br)c1 | 3 nM | > 100000 nM |  | 3.4 nM | 3 nM | 0.7 nM | > 100000 nM | 133 nM
33 | N#Cc1ccc(Nc2cc(N)nc(Cc3c(Cl)cccc3Cl)n2)cc1 | > 100000 nM |  |  | > 100000 nM | > 100000 nM | 452 nM | > 100000 nM | 
34 | N#Cc1ccc(Nc2nccc(Nc3c(F)cc(Br)cc3Br)n2)cc1 | 5.7 nM | > 10000 nM |  | 15 nM | 15 nM | 0.6 nM | 64 nM | 
35 | C#Cc1cc(C)c(Oc2ccnc(Nc3ccc(C#N)cc3)n2)c(C)c1 | 12 nM | 4190 nM |  | 171 nM | 185 nM | 5.5 nM | 50 nM | 793 nM
36 | Cc1cc(C#N)cc(C)c1Nc1ccnc(Nc2ccc(C#N)cc2)n1 | 1.9 nM | 1090 nM | 37 nM | 7.1 nM | 34 nM | 0.4 nM | 7.8 nM | 
37 | Cc1cc(C#N)cc(C)c1Oc1nc(Nc2ccc(C#N)cc2)ncc1N | 1.3 nM | 282 nM |  | 9.3 nM | 16 nM | 1 nM | 5.7 nM | 14 nM
